Where two headings read alike, the source gives them in different places.
Tests used:
[1] = Acute oral toxicity (lethality) in mice; settings: mouse, in vivo, po
From the text: (§1) and of the combined preparation of 25 parts by weight
Doses in mg/kg Body Weight

[2] = cited from earlier work
white mice = experiment: Acute oral toxicity (lethality) in mice; settings: oral, mice
From the text: as §1
Doses in mg/kg Body Weight

SMILES | LD50 [1] [mg/kg] | hypnotic or soporific effect (in words) ([2]; 1 mg) | side effects (in words) ([2]; 2 to 3 mg, in individual cases) | half-life (in words) ([2]; in vivo) | ratio between effect and tolerance (in words) ([2]; single dose of 1 mg) | side effects (in words) ([2]; somewhat higher doses, may occur in the next few days) | DL 95 (white mice) [mg/kg]
O=C1Nc2ccc(Cl)cc2C(c2ccccc2Cl)=NC1O (stereo not shown) [lorazepam, 7-chlor-5-(2-chlorphenyl)-1,3-dihydro-3-hydroxy-2H-1,4 benzodiazepin-2-on] | 3180 | often insufficient | subjectively unpleasant side effects can occur | medium half-life | especially good ratio between effect and tolerance | relatively strong side effects, such as muscle relaxation, ataxia and sedative after-effects | 
CN(C)CCOC(c1ccccc1)c1ccccc1 [diphenhydramine, 2-(diphenyl-methoxy)-N,N-dimethyl ethanamine] |  |  |  |  |  |  | 645
